For experiment [1], the system named is NCI-H292 lung cancer cells. The experiment in a line: FDA drug screening, complete media vs cholesterol-free media with simvastatin (TABLE 2). It is filed as cell-based, human. The following applies: for Cholesterol-free media + simvastatin (0.04 μM) / Complete Media: NCI-H292 cells.
In experiment [2] the test system is NCI-H292 lung cancer cells. Kind of experiment: FDA drug screening, complete media vs cholesterol-free media without statin (TABLE 1). It is filed as cell-based, human.
Setting [3] is: FDA drug library screen, cholesterol-free media with simvastatin 0.04 μM.
[4] abbreviates: FDA drug library screen, complete media.
The mark [5] stands for this setting: complete media vs cholesterol-free media + simvastatin (0.04 μM), >0 enhanced anti-cancer activity, about 0 neutral, <0 antagonist.
Where [6] appears, read: Complete minus Cholesterol-free, >0 enhanced anti-cancer activity, about 0 neutral, <0 antagonist.
[7] abbreviates: NCI-H292 cells, cholesterol-free media without statin, FDA drug library screen.
The mark [8] stands for this setting: NCI-H292 cells, complete media, FDA drug library screen.
[9] abbreviates: complete media minus cholesterol-free media + simvastatin, >0 enhanced anti-cancer activity, about 0 neutral, <0 antagonist.
Where [10] appears, read: complete media vs cholesterol-free media + simvastatin (0.04 μM), […].
The mark [11] stands for this setting: Complete minus Cholesterol-free, […].
[12] abbreviates: NCI-H292 cells, cholesterol-free media without statin.
[13] abbreviates: cholesterol-free media with simvastatin 0.04 μM, FDA drug library screen (TABLE 2).
[14] abbreviates: complete media minus cholesterol-free media + simvastatin (0.04 μM), […].
The mark [15] stands for this setting: complete media, FDA drug library screen (TABLE 2).

Structures can show the parent of a compound that is named as a salt. Ends that are not written are not given here.

Regarding `O=C(O)C1=C(CSc2nnnn2CS(=O)(=O)O)CS[C@@H]2[C@H](NC(=O)[C@H](O)c3ccccc3)C(=O)N12` [Cefonicid (sodium)], the “Cholesterol-free media + simvastatin (0.04 μM)” value in experiment [1] (setting [3]) came out at 1.25. Further, the “Complete Media” value in experiment [1] (setting [4]) was 1.107. Moreover, the figures for the Difference in experiment [1] (setting [5]) and in experiment [2] (setting [6]) were −0.14 and 0.00, respectively. Also, the Cholesterol-free in experiment [2] (setting [7]) is given as 0.833. In experiment [2] (setting [8]), this compound registered a Complete of 0.8286.
As to `CCOC(=O)O[C@]1(C(=O)OCCl)CC[C@H]2[C@@H]3CCC4=CC(=O)C=C[C@]4(C)[C@H]3[C@@H](O)C[C@@]21C` [Loteprednol Etabonate], in experiment [1] (setting [3]), the “Cholesterol-free media + simvastatin (0.04 μM)” value worked out at 0.9128. For the same compound, in experiment [1] (setting [4]), the “Complete Media” value is recorded as 1.184. Besides, the Difference in experiment [1] (setting [9]) stood at 0.27; in experiment [2] (complete vs cholesterol-free media, >0 enhanced anti-cancer activity, about 0 neutral, <0 antagonist), 0.36. This compound returned a Cholesterol-free in experiment [2] (setting [7]) of 0.5384. In experiment [2] (setting [8]), this compound gave a Complete of 0.8969.
As for `O=C(c1ccc(F)c(F)c1Nc1ccc(I)cc1F)N1CC(O)([C@@H]2CCCCN2)C1` (racemic) [Cobimetinib (racemate)], in experiment [1] (setting [3]), the “Cholesterol-free media + simvastatin (0.04 μM)” value is listed as 0.2662. In addition, the “Complete Media” value in experiment [1] (setting [4]) is recorded as 0.405. In addition, the Difference is 0.14 in experiment [1] (setting [9]) and −0.02 in experiment [2] (setting [6]). In experiment [2] (setting [7]), this compound yielded a Cholesterol-free of 0.2982. This compound showed a Complete in experiment [2] (setting [8]) of 0.2751.
`CC(=O)OCC(=O)[C@@]1(O)CC[C@H]2[C@@H]3CCC4=CC(=O)C=C[C@]4(C)[C@H]3C(=O)C[C@@]21C` [Prednisone acetate]: in experiment [1] (FDA library drug in cholesterol-free media with simvastatin 0.04 μM), the “Cholesterol-free media + simvastatin (0.04 μM)” value is reported as 0.9605. In experiment [1] (FDA library drug in complete media), the “Complete Media” value stood at 0.6606. Further, the Difference is reported as −0.30 in experiment [1] (setting [10]) and −0.20 in experiment [2] (setting [11]). In experiment [2] (setting [12]), this compound returned a Cholesterol-free of 0.9782. The compound also displayed a Complete in experiment [2] (NCI-H292 cells, complete media) of 0.7806.
As to “Cyclic somatostatin (AGCKNFFWKTFTSC; not fully specified (bridges); cysteine pairing not given here; UniProt P61278 103-116, looked up)”, the “Cholesterol-free media + simvastatin (0.04 μM)” value in experiment [1] (setting [13]) is given as 0.9769. Further, the Difference in experiment [1] (setting [14]) is on record as −0.04; in experiment [2] (setting [11]), 0.00. In experiment [2] (setting [7]), this compound registered a Cholesterol-free of 1.02. In experiment [2] (setting [8]), the Complete came out at 1.023.
Consider `CC(=O)O[C@H]1[C@H]2O[C@]23[C@@H]2CC[C@]4(O)C[C@@H](O)CC[C@]4(C)[C@H]2CC[C@]3(C)[C@H]1c1ccc(=O)oc1` [Cinobufotalin], for which the “Cholesterol-free media + simvastatin (0.04 μM)” value in experiment [1] (setting [13]) worked out at 0.03115. The “Complete Media” value in experiment [1] (setting [15]) is on record as 0.01046. The Difference was −0.02 in experiment [1] (setting [14]) and −0.04 in experiment [2] (setting [11]). Also, the Cholesterol-free in experiment [2] (setting [7]) was determined as 0.003242. In experiment [2] (setting [8]), this compound gave a Complete of −0.03407.
`COc1cc(N)c(Cl)cc1C(=O)NC1CCN(CCCOc2ccc(F)cc2)CC1OC` (centres unmarked) [Cisapride]: the “Cholesterol-free media + simvastatin (0.04 μM)” value in experiment [1] (setting [3]) came to 1.001. Besides, in experiment [1] (setting [4]), the “Complete Media” value amounted to 0.8916. In addition, the Difference in experiment [1] (setting [5]) was −0.11; in experiment [2] (Complete minus Cholesterol-free, greater than 0 enhanced anti-cancer activity, about 0 neutral, below 0 antagonists) it was −0.91. This compound came in with a Cholesterol-free in experiment [2] (NCI-H292 cells in cholesterol-free media without statin) of 1.595. Moreover, the Complete in experiment [2] (NCI-H292 cells in complete media) was 0.6865.
`c1ccc(C2CN3CCSC3=N2)cc1` (centres unmarked) [Tetramisole (hydrochloride)]: the “Cholesterol-free media + simvastatin (0.04 μM)” value in experiment [1] (setting [13]) is on record as 1.011. The “Complete Media” value in experiment [1] (setting [15]) amounted to 0.9757. The Difference in experiment [1] (complete media minus cholesterol-free media + simvastatin (0.04 μM), >0 enhanced anti-cancer activity, about 0 neutral, <0 antagonist) is −0.04; in experiment [2] (complete vs cholesterol-free media, greater than 0 enhanced anti-cancer activity, about 0 neutral, below 0 antagonists), −0.44. Moreover, in experiment [2] (setting [12]), the Cholesterol-free is recorded as 1.362. In experiment [2] (NCI-H292 cells, complete media), this compound displayed a Complete of 0.9185.
On to `CCC[S+]([O-])c1ccc2[nH]c(NC(=O)OC)nc2c1` (centres unmarked) [Albendazole sulfoxide], for which the “Cholesterol-free media + simvastatin (0.04 μM)” value in experiment [1] (drug in cholesterol-free media with simvastatin 0.04 μM) is given as 1.376. Besides, the “Complete Media” value in experiment [1] (drug in complete media) is listed as 1.125. Further, the Difference is listed as −0.25 in experiment [1] (setting [10]) and −0.46 in experiment [2] (complete vs cholesterol-free media, […]). The compound further registered a Cholesterol-free in experiment [2] (setting [12]) of 1.467. Moreover, the Complete in experiment [2] (NCI-H292 cells, complete media) worked out at 1.005.

For the origin of these results see patent publication US20250144067A1, “PERSONALIZED STARVATION THERAPY FOR CANCER” (Faeth Therapeutics, Inc., priority 2021, published 2025).
